Like-named read-outs stand apart in the source and are kept apart here. One block for each compound: values may come before it.
Experiments:
HaCaT cells [1] = experiment: HaCaT keratinocyte proliferation assay; type: cell-based; settings: Homo sapiens
Excerpt: (§1) The biological assay methods were as follows: LDH release as described in Muller K, Huang H-S, Wiegrebe W, J. Med. Chem. 39, 3132-3138 (1996); bovine PMNL 5-LO assay as described in Muller K, Gurster D, Piwek S, Wiegrebe W, J. Med. Chem. 36, 4099-4107 (1993); and degradation of 2-deoxy-D-ribose as described in Muller K, Gurster D, Biochem. Pharmacol. 46, 1695-1704 (1993). HaCaT keratinocyte proliferation assay was generally described in Muller K, Leukel P, Zeireis K, Gawlik I, J. Med. Chem 37, 1660-1669 (1994). Specifically, the HaCaT cells were incubated with the test compounds (2 microM) for four hours at 37° C. Extracellular LDH activity was measured using the UV method with pyruvate and NADH and is expressly in mU/ml. Appropriate controls with the vehicle were performed (P<0.01; N=3, SD<10%).

5-LO in bovine PMNL = target: T1, 5-LO in bovine PMNL (Bos taurus, UniProt F1MQ78); experiment: Bovine PMNL 5-lipoxygenase assay (inhibition of 5-HETE and LTB4 biosynthesis); type: cell-based
T1 construct: endogenous in cells; host or cells: polymorphonuclear leukocytes isolated from bovine blood
T1 sequence (F1MQ78 1-674): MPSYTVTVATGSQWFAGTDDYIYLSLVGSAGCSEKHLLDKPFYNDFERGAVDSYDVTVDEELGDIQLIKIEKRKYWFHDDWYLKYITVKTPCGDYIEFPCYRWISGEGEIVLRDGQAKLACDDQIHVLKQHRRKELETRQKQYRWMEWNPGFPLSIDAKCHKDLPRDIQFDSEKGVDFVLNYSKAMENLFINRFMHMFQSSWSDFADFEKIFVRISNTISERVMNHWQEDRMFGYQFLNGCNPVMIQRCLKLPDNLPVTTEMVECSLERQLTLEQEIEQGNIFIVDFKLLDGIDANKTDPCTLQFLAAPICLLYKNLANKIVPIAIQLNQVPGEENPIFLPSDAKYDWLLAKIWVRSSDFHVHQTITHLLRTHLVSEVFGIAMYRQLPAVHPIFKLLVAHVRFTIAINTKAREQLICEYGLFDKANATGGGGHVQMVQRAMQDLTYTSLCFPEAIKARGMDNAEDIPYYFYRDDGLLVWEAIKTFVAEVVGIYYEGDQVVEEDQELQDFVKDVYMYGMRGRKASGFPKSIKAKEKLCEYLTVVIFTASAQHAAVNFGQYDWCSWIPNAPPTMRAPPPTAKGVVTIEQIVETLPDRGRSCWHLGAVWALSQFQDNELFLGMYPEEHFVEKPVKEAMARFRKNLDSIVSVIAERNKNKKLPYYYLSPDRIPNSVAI

HaCaT cells [2] = experiment: LDH release in HaCaT cells; type: cell-based; settings: for LDH release versus vehicle control, in words: 2 microM, 37° C., four hours
Excerpt: as §1
Geisel J.; Mahrle, G. "Lactate dehydrogenase release as an indicator of dithranol-induced membrane injury in cultured human keratinocytes", Arch. Dermatol. Res., 282, 325-329 (1990)). Cytotoxicity against cell cultures by the potent cell growth inhibitors was assessed by the activity of lactate dehydrogenase (LDH) activity release into the culture medium. The release of LDH is commonly used as an indicator of plasma membrane damage.

[3] = Degradation of 2-deoxy-D-ribose (hydroxyl radical formation)
Procedure: This assay followed generally the procedures of Gutteridge, J. M. C., "Reactivity of Hydroxyl and Hydroxyl-Like Radicals Discriminated by Release of Thiobarbituric Acid-Reactive Material from Deoxy Sugars, Nucleosides and Benzoate", Biochem. J., 224, 761-767 (1984) and of Laughton, M. J. et al., "Antioxidant and Prooxidant Actions of the Plant Phenolics Quercetin, Gossypol and Myricetin", Biochem. Pharmacol., 38, 2859-2865 (1989). The following reagents were added to glass tubes in the order and at the final concentrations stated. 0.3 ml KH2 PO4 -KOH buffer, pH 7.4 (30 mM), 0.2 ml H2 O bidist., 0.2 ml 2-deoxy-D-ribose (2 mM), 0.2 ml FeCl3 .cndot.6 H2 O (0.1 mM), 0.1 ml anthracenone derivative (75 μM). Stock solutions of the compounds were made up fresh before use. Appropriate blanks and controls with the vehicle (acetonitrile) were conducted. The final reaction volumes were standardized to 1.0 ml. The reaction mixtures were incubated for 2 h at 37° C. in a shaking water bath. 1.0 ml of 2.8% (w/v) trichloroacetic acid and 1.0 ml of 1% (w/v in 0.05 N NaOH) 2-thiobarbituric acid (TBA) were added, and the samples were heated at 100° C. for 15 min and then cooled in an ice bath (5 min). Then 2.0 ml of the reaction mixtures were treated with 0.05 ml of 36% (w/v) HCl and 2.0 ml of 1-butanol and the mixtures were vigorously shaken in a vortex mixer (Heidolph) for 15 s. The organic layer was separated by centrifugation at 3000 rpm (15 min) and the absorbance at 532 nm was measured against butanol. […]
The biological assay methods were as follows: LDH release as described in Muller K, Huang H-S, Wiegrebe W, J. Med. Chem. 39, 3132-3138 (1996); bovine PMNL 5-LO assay as described in Muller K, Gurster D, Piwek S, Wiegrebe W, J. Med. Chem. 36, 4099-4107 (1993); and degradation of 2-deoxy-D-ribose as described in Muller K, Gurster D, Biochem. Pharmacol. 46, 1695-1704 (1993). […] Extracellular LDH activity was measured using the UV method with pyruvate and NADH and is expressly in mU/ml. […]

psoriasis = settings: in vivo; cited from earlier work
[4] = Reducing activity toward DPPH; settings: Table I (Addendum); equimolar amount of test compound
Procedure: This assay followed generally the procedures of Blois, M. S., "Antioxidant Determinations by the Use of a Stable Free Radical", Nature, 181, 1199-1200 (1958) and Kato, K. et al., "Studies on Scavengers of Active Oxygen Species. 1. Synthesis and Biological Activity of 2-O-Alkylascorbic Acids", J. Med. Chem., 31, 793-798 (1988). In time studies, 1 ml of test compound solution (10^-4 M) was added to 1 ml of DPPH solution (10^-4 M), each in acetone/PBS (1+1 V/V), and the reduction of DPPH was followed spectrophotometrically at 516 nm. Plots of the reciprocal of DPPH concentrations against time gave straight lines, and the second-orderrate constants were obtained from the slopes and are expressed as mean values (n=3-6). In the cases where DPPH was very fast approximate values are given and expressed as kDPPH >100 or kDPPH >>100M^-1s^-1.
Because a radical scavenging antioxidant reacts rapidly with the stable free radical 2,2-diphenyl-1-picrylhydrazyl (DPPH), Blois, M. S., "Antioxidant Determination by the Use of a Stable Free Radical", Nature, 181, 1199-1200 (1958); Kato, K. et al., "Studies on Scavengers of Active Oxygen Species. I. Synthesis and Biological Activity of 2-O-Alkylascorbic Acids", J. Med. Chem., 31, 793-798 (1988), the reactivities of the new compounds with DPPH were determined by decrease in absorbance at 516 nm.

[5] = tested on: LTB4 production in human neutrophils; settings: depending on cell density; cited from earlier work
[6] = tested on: cultured human keratinocytes; settings: cited from earlier work
[7] = Stability at pH 7.4 in phosphate buffer under lipoxygenase assay incubation; type: physicochemical; settings: pH 7.4, phosphate buffer, lipoxygenase assay conditions
Procedure: In connection with confirming the resistance to metabolic degradation of the compounds of the invention, the following procedures will be of interest. C-10-acylated compounds of Tanzer et al., Arch. Pharm., 322, 441-444 (1989) were determined to be stable at pH 7.5 when incubated for glucose-6-phosphate dehydrogenase inhibition assays. […] The compounds of the present invention are stable at pH 7.4 (in phosphate buffer) when incubated for the lipoxygenase assay. […] These procedures are expected to be useful in confirming the metabolic stability of the compounds of the invention.

skin = settings: topical/therapeutic application; cited from earlier work
[8] = pH 7.5; cited from earlier work
[9] = Lipid peroxidation in bovine brain phospholipid liposomes; settings: Table I (Addendum); n = 3 or more; standard errors average 20%; read-out: LPO IC50
Procedure: Phospholipids were prepared essentially as described by Gutteridge, J. M. C., "The Measurement of Malondialdehyde in Peroxidised Ox-Brain Phospholipid Liposomes", Anal. Biochem., 82, 76-82 (1977). Bovine brain, cooled on ice, was freed from blood vessels and washed repeatedly with 0.15M NaCl, pH 7.4. It was cut to pieces and then macerated with an ultra-turrax, passed through a close-meshed sieve, and extracted four times with four times the volume of acetone. The extraction mixture was filtered by suction to remove the acetone, the residue was dried under vacuum, and then repeatedly extracted with petroleum ether (40-60) using twice the volume of the original brain homogenate. The combined extracts were filtered, dried at 45° C., and dissolved in ether (one fifth of the original brain volume). The mixture was treated with five times the volume of acetone, and the resulting precipitate was collected by suction-filtration, dried and stored under N2 at -20° C. in the dark. Bovine brain phospholipids were weighed into glass tubes and shaken in a vortex mixer (Heidolph) in the presence of five small glass beads (.phi. 4 mm) for 1 min. […]
The following reagents were added to glass tubes in the order and at the final concentrations stated. […] The organic layer was separated by centrifugation at 3000 rpm (15 min) and the absorbance at 532 nm was measured against butanol.

[10] = octanol-water; cited from earlier work
[11] = Table V, 2 μM test compound (Example 8)
[12] = Table IV, N = 3, P < 0.01, read-out: AA IC50 (antiproliferative activity)
[13] = Table IV, 2 μM test compound, N = 3, SD < 10%

IC50 (5-LO in bovine PMNL; Table V, bovine PMNL): 0.3 µM | LDH release (HaCaT cells [2]; [11]): 171 mU | DD(OH), deoxyribose degradation ([3]; Table V, footnotes same as in Example 8): < 0.3 μmol of malondialdehyde/mmol o
Structure (SMILES): CC(CCC(=O)C1c2cccc(O)c2C(=O)c2c(O)cccc21)c1ccccc1 (racemic) [Compound Iw, (R,S)-1,8-dihydroxy-10-(1-oxo-4-phenylpentyl)-9(10H)-anthracenone]
IC50 (HaCaT cells [1]; Table V, footnotes same as in Example 8, read-out: AA IC50 (antiproliferative activity)): 0.8 µM

Structure (SMILES): O=C1c2ccccc2Cc2cccc(O)c21 [1-hydroxy-9(10H)-anthracenone]
antipsoriatic efficacy, in words (psoriasis): effective in the treatment of psoriasis

time to degradation [7]: ≤ 2 h | IC50 [9]: 12 µM | LDH release (HaCaT cells [2]; [13]): 294 mU | LDH release (HaCaT cells [2]; [11]): 294 mU
Structure (SMILES): O=C1c2c(O)cccc2Cc2cccc(O)c21 [Anthralin, 1,8-dihydroxy-9(10H)-anthracenone]
kDPPH [4]: 24.2 ± 4.2 M⁻¹ s⁻¹ | IC50 [5]: 7 to 74 µM | IC50 (HaCaT cells [1]; [12]): 0.7 µM | antipsoriatic efficacy, in words (psoriasis): effective in the treatment of psoriasis | membrane damage, in words [6]: cause membrane damage, but did not directly lead to substantial membrane destruction | irritation, in words (skin): non-affected skin surrounding a psoriatic lesion to which anthralin is applied is frequently irritated | stability under G6PD inhibition assay incubation, in words [8]: degraded almost completely | LDH release versus vehicle control, in words (HaCaT cells [2]): significantly exceeded that of the vehicle control

IC50 (5-LO in bovine PMNL): 0.6 µM | LDH release (HaCaT cells [2]; [13]): 145 mU | DD(OH), deoxyribose degradation ([3]; Table IV, released by 75 μm test compound (so in the source)): < 0.3 μmol of malondialdehyde/mmol o
Structure (SMILES): Cc1ccc(CC(=O)C2c3cccc(O)c3C(=O)c3c(O)cccc32)cc1 [Compound Iv, 1,8-dihydroxy-10-[2-(4-methylphenyl)-1-oxoethyl]-9(10H)-anthracenone]
IC50 (HaCaT cells [1]; [12]): 0.7 µM | LDH release versus vehicle control, in words (HaCaT cells [2]): not significantly different as compared to vehicle controls

effectiveness as inhibitor of lipoxygenase relative to anthralin (5-LO in bovine PMNL; compared with anthralin): ~100 times
Structure (SMILES): O=C1c2c(O)cccc2C(C(=O)CCCc2ccccc2)c2cccc(O)c21 [Ip, 1,8-Dihydroxy-10-(1-oxo-4-phenylbutyl)-9(10H)-anthracenone]

IC50 (5-LO in bovine PMNL): 0.4 µM
Structure (SMILES): CC(Cc1ccc(O)c(O)c1)C(C)Cc1ccc(O)c(O)c1 (centres unmarked) [Nordihydroguaiaretic acid (NDGA), Nordihydroguaiaretic acid]

Structure (SMILES): c1ccc2ccccc2c1 [naphthalene]
log P (known values of calibration compounds) [10]: 3.44

Structure (SMILES): CC(=O)Oc1cccc2cc3cccc(OC(C)=O)c3c(OC(C)=O)c12 [triacetoxyanthracene]
inhibition at 30 µM (5-LO in bovine PMNL; at 30 μM, bovine PMNL): 15%

From patent publication US5952390A, “10-substituted 1,8-dihydroxy-9(10H) anthracenone pharmaceuticals” (Teva Pharmaceutical Industries Ltd., priority 1998, dated 1999)
